Reference: BindingDB's records for doi:10.1021/acs.jmedchem.8b01602 (2018)

Key:
[1] = Non-competitive inhibition of human GAT1 expressed in COS cells assessed as reduction in [2H6]GABA uptake by measuring [2H6]GABA Kd(app) at 1 uM preincubated for 25 mins followed by [2H6]GABA addition and measured after 4 mins by liquid scintillation counting method (Rvb = 28.3 +/- 1.5 nM)
[2] = Non-competitive inhibition of human GAT1 expressed in COS cells assessed as reduction in [2H6]GABA uptake by measuring [2H6]GABA Kd(app) at 10 uM preincubated for 25 mins followed by [2H6]GABA addition and measured after 4 mins by liquid scintillation counting method (Rvb = 28.3 +/- 1.5 nM)
[3] = Inhibition of mouse GAT3 expressed in HEK293 cells assessed as reduction in [3H]GABA uptake preincubated for 25 mins followed by [3H]GABA addition and measured after 4 mins by liquid scintillation counting method
[4] = Inhibition of mouse GAT2 expressed in HEK293 cells assessed as reduction in [3H]GABA uptake preincubated for 25 mins followed by [3H]GABA addition and measured after 10 mins by liquid scintillation counting method

| Structure (SMILES) | Kd [1] [µM] | Kd [2] [µM] | IC50 [3] [µM] | IC50 [4] [µM] |
| --- | --- | --- | --- | --- |
| O=C(O)[C@H]1CNC[C@@H](CN/N=C/c2ccc(-c3cc(C(F)(F)F)cc(C(F)(F)F)c3)o2)C1 | 0.058 | 0.154 |  |  |
| O=C(O)[C@H]1CNC[C@@H](CN/N=C/c2ccc(-c3cccc4ccccc34)o2)C1 | 0.056 | 0.112 | 33.1 |  |
| O=C(O)[C@H]1CNC[C@@H](CCN/N=C/c2ccc(-c3ccc(C(F)(F)F)cc3Cl)o2)C1 |  |  | 58.9 | 53.7 |
| O=C(O)[C@H]1CNC[C@@H](CCN/N=C/c2ccc(-c3ccc(Cl)cc3Cl)o2)C1 |  |  | 25.7 | 53.7 |
